From the NIST ThermoML archive (doi:10.1021/je400149j)
Numbers after ± are expanded uncertainties.

Experiment: relative permittivity at zero frequency (dimensionless); xn = mol fraction of the nth substance listed
Conditions: 101 kPa, Liquid, impedance/gain phase analyzer

C[S+](C)[O-] [dimethyl sulfoxide] + O
relative permittivity at zero frequency
Conditions | x1 = 0.1536 | x1 = 0.2496 | x1 = 0.3505 | x1 = 0.4975 | x1 = 0.5991 | x1 = 0.7039 | x1 = 0.7882 | x1 = 0.8297 | x1 = 0.9159 | x1 = 1
253.15 K | 91.94 ± 0.1 | 88.58 ± 0.1 | 84.04 ± 0.1 | 76.79 ± 0.1 | – | – | – | – | – | –
255.15 K | 91.25 ± 0.1 | 87.74 ± 0.1 | 83.36 ± 0.1 | 76.23 ± 0.1 | – | – | – | – | – | –
257.15 K | 90.45 ± 0.1 | 86.97 ± 0.1 | 82.67 ± 0.1 | 75.63 ± 0.1 | – | – | – | – | – | –
259.15 K | 89.61 ± 0.1 | 86.2 ± 0.1 | 82.03 ± 0.1 | 75.1 ± 0.1 | – | – | – | – | – | –
261.15 K | 88.8 ± 0.1 | 85.42 ± 0.1 | 81.31 ± 0.1 | 74.51 ± 0.1 | 69.37 ± 0.1 | – | – | – | – | –
263.15 K | 87.94 ± 0.1 | 84.64 ± 0.1 | 80.65 ± 0.1 | 73.97 ± 0.1 | 68.84 ± 0.1 | – | – | – | – | –
265.15 K | 87.11 ± 0.1 | 83.94 ± 0.1 | 79.97 ± 0.1 | 73.39 ± 0.1 | 68.38 ± 0.1 | – | – | – | – | –
267.15 K | 86.34 ± 0.1 | 83.09 ± 0.1 | 79.33 ± 0.1 | 72.86 ± 0.1 | 67.89 ± 0.1 | – | – | – | – | –
269.15 K | 85.49 ± 0.1 | 82.43 ± 0.1 | 78.71 ± 0.1 | 72.29 ± 0.1 | 67.37 ± 0.1 | – | – | – | – | –
271.15 K | 84.69 ± 0.1 | 81.68 ± 0.1 | 78.01 ± 0.1 | 71.63 ± 0.1 | 66.92 ± 0.1 | – | – | – | – | –
273.15 K | 83.99 ± 0.1 | 80.92 ± 0.1 | 77.39 ± 0.1 | 71.06 ± 0.1 | 66.4 ± 0.1 | 60.97 ± 0.1 | – | – | – | –
275.15 K | 83.16 ± 0.1 | 80.24 ± 0.1 | 76.74 ± 0.1 | 70.47 ± 0.1 | 65.94 ± 0.1 | 60.58 ± 0.1 | – | – | – | –
277.15 K | 82.38 ± 0.1 | 79.52 ± 0.1 | 75.92 ± 0.1 | 69.92 ± 0.1 | 65.48 ± 0.1 | 60.19 ± 0.1 | – | – | – | –
279.15 K | 81.7 ± 0.1 | 78.75 ± 0.1 | 75.25 ± 0.1 | 69.35 ± 0.1 | 65 ± 0.1 | 59.84 ± 0.1 | 56.06 ± 0.1 | – | – | –
281.15 K | 80.98 ± 0.1 | 78.14 ± 0.1 | 74.63 ± 0.1 | 68.84 ± 0.1 | 64.52 ± 0.1 | 59.46 ± 0.1 | 55.83 ± 0.1 | – | – | –
283.15 K | 80.31 ± 0.1 | 77.42 ± 0.1 | 74.04 ± 0.1 | 68.36 ± 0.1 | 64.1 ± 0.1 | 59.05 ± 0.1 | 55.54 ± 0.1 | 53.95 ± 0.1 | – | –
285.15 K | 79.54 ± 0.1 | 76.72 ± 0.1 | 73.46 ± 0.1 | 67.82 ± 0.1 | 63.61 ± 0.1 | 58.67 ± 0.1 | 55.2 ± 0.1 | 53.67 ± 0.1 | – | –
287.15 K | 78.93 ± 0.1 | 76.14 ± 0.1 | 72.79 ± 0.1 | 67.3 ± 0.1 | 63.09 ± 0.1 | 58.31 ± 0.1 | 54.84 ± 0.1 | 53.38 ± 0.1 | 50.53 ± 0.1 | –
289.15 K | 78.19 ± 0.1 | 75.4 ± 0.1 | 72.06 ± 0.1 | 66.67 ± 0.1 | 62.58 ± 0.1 | 57.91 ± 0.1 | 54.52 ± 0.1 | 53.01 ± 0.1 | 50.3 ± 0.1 | –
291.15 K | 77.43 ± 0.1 | 74.76 ± 0.1 | 71.47 ± 0.1 | 66.13 ± 0.1 | 62.13 ± 0.1 | 57.57 ± 0.1 | 54.21 ± 0.1 | 52.68 ± 0.1 | 50.06 ± 0.1 | 47.15 ± 0.1
293.15 K | 76.72 ± 0.1 | 74.13 ± 0.1 | 70.84 ± 0.1 | 65.63 ± 0.1 | 61.65 ± 0.1 | 57.17 ± 0.1 | 53.82 ± 0.1 | 52.36 ± 0.1 | 49.79 ± 0.1 | 47.09 ± 0.1
295.15 K | 75.97 ± 0.1 | 73.52 ± 0.1 | 70.29 ± 0.1 | 65.13 ± 0.1 | 61.23 ± 0.1 | 56.81 ± 0.1 | 53.45 ± 0.1 | 52.06 ± 0.1 | 49.53 ± 0.1 | 46.84 ± 0.1
297.15 K | 75.33 ± 0.1 | 72.88 ± 0.1 | 69.71 ± 0.1 | 64.67 ± 0.1 | 60.76 ± 0.1 | 56.37 ± 0.1 | 53.1 ± 0.1 | 51.72 ± 0.1 | 49.27 ± 0.1 | 46.64 ± 0.1
299.15 K | 74.63 ± 0.1 | 72.11 ± 0.1 | 69 ± 0.1 | 64.12 ± 0.1 | 60.32 ± 0.1 | 55.99 ± 0.1 | 52.77 ± 0.1 | 51.42 ± 0.1 | 49 ± 0.1 | 46.39 ± 0.1
301.15 K | 74.02 ± 0.1 | 71.48 ± 0.1 | 68.41 ± 0.1 | 63.63 ± 0.1 | 59.83 ± 0.1 | 55.59 ± 0.1 | 52.41 ± 0.1 | 51 ± 0.1 | 48.75 ± 0.1 | 46.18 ± 0.1
303.15 K | 73.34 ± 0.1 | 70.83 ± 0.1 | 67.88 ± 0.1 | 63.07 ± 0.1 | 59.38 ± 0.1 | 55.21 ± 0.1 | 52.03 ± 0.1 | 50.7 ± 0.1 | 48.48 ± 0.1 | 45.94 ± 0.1
305.15 K | 72.66 ± 0.1 | 70.21 ± 0.1 | 67.29 ± 0.1 | 62.57 ± 0.1 | 58.95 ± 0.1 | 54.82 ± 0.1 | 51.63 ± 0.1 | 50.38 ± 0.1 | 48.21 ± 0.1 | 45.63 ± 0.1
307.15 K | 72.02 ± 0.1 | 69.63 ± 0.1 | 66.63 ± 0.1 | 62.12 ± 0.1 | 58.51 ± 0.1 | 54.47 ± 0.1 | 51.27 ± 0.1 | 50.04 ± 0.1 | 47.94 ± 0.1 | 45.39 ± 0.1
309.15 K | 71.28 ± 0.1 | 69.05 ± 0.1 | 66.07 ± 0.1 | 61.59 ± 0.1 | 58.1 ± 0.1 | 54.05 ± 0.1 | 50.9 ± 0.1 | 49.68 ± 0.1 | 47.64 ± 0.1 | 45.14 ± 0.1
311.15 K | 70.73 ± 0.1 | 68.39 ± 0.1 | 65.52 ± 0.1 | 61.06 ± 0.1 | 57.64 ± 0.1 | 53.66 ± 0.1 | 50.51 ± 0.1 | 49.39 ± 0.1 | 47.35 ± 0.1 | 44.88 ± 0.1
313.15 K | 70.05 ± 0.1 | 67.84 ± 0.1 | 64.91 ± 0.1 | 60.58 ± 0.1 | 57.16 ± 0.1 | 53.28 ± 0.1 | 50.11 ± 0.1 | 49.02 ± 0.1 | 47.09 ± 0.1 | 44.64 ± 0.1
315.15 K | 69.51 ± 0.1 | 67.3 ± 0.1 | 64.33 ± 0.1 | 60.13 ± 0.1 | 56.72 ± 0.1 | 52.92 ± 0.1 | 49.73 ± 0.1 | 48.67 ± 0.1 | 46.85 ± 0.1 | 44.34 ± 0.1
317.15 K | 68.91 ± 0.1 | 66.79 ± 0.1 | 63.77 ± 0.1 | 59.56 ± 0.1 | 56.28 ± 0.1 | 52.56 ± 0.1 | 49.39 ± 0.1 | 48.36 ± 0.1 | 46.53 ± 0.1 | 44.11 ± 0.1
319.15 K | 68.26 ± 0.1 | 66.18 ± 0.1 | 63.12 ± 0.1 | 59.12 ± 0.1 | 55.79 ± 0.1 | 52.15 ± 0.1 | 49.09 ± 0.1 | 48 ± 0.1 | 46.26 ± 0.1 | 43.87 ± 0.1
321.15 K | 67.66 ± 0.1 | 65.6 ± 0.1 | 62.59 ± 0.1 | 58.67 ± 0.1 | 55.33 ± 0.1 | 51.79 ± 0.1 | 48.75 ± 0.1 | 47.69 ± 0.1 | 45.99 ± 0.1 | 43.58 ± 0.1
323.15 K | 67.01 ± 0.1 | 65.07 ± 0.1 | 62.03 ± 0.1 | 58.11 ± 0.1 | 54.85 ± 0.1 | 51.43 ± 0.1 | 48.37 ± 0.1 | 47.33 ± 0.1 | 45.72 ± 0.1 | 43.31 ± 0.1
325.15 K | 66.49 ± 0.1 | 64.43 ± 0.1 | 61.49 ± 0.1 | 57.67 ± 0.1 | 54.36 ± 0.1 | 51.04 ± 0.1 | 48.03 ± 0.1 | 47 ± 0.1 | 45.4 ± 0.1 | 43.07 ± 0.1
327.15 K | 65.83 ± 0.1 | 63.89 ± 0.1 | 60.98 ± 0.1 | 57.18 ± 0.1 | 54 ± 0.1 | 50.64 ± 0.1 | 47.64 ± 0.1 | 46.66 ± 0.1 | 45.12 ± 0.1 | 42.78 ± 0.1
329.15 K | 65.27 ± 0.1 | 63.35 ± 0.1 | 60.4 ± 0.1 | 56.69 ± 0.1 | 53.52 ± 0.1 | 50.25 ± 0.1 | 47.27 ± 0.1 | 46.35 ± 0.1 | 44.82 ± 0.1 | 42.56 ± 0.1
331.15 K | 64.72 ± 0.1 | 62.78 ± 0.1 | 59.87 ± 0.1 | 56.23 ± 0.1 | 53.03 ± 0.1 | 49.87 ± 0.1 | 46.94 ± 0.1 | 45.99 ± 0.1 | 44.53 ± 0.1 | 42.27 ± 0.1
333.15 K | 64.08 ± 0.1 | 62.18 ± 0.1 | 59.28 ± 0.1 | 55.72 ± 0.1 | 52.61 ± 0.1 | 49.49 ± 0.1 | 46.57 ± 0.1 | 45.67 ± 0.1 | 44.23 ± 0.1 | 42 ± 0.1
